The values that follow are results of earlier work, collected in patent US6046331A, “Imidazolones and their use in treating benign prostatic hyperplasia and other disorders” (Synaptic Pharmaceutical Corporation, priority 1998, dated 2000).

Structures are written as SMILES.

For data set [1] the following is noted: in vivo; cited from earlier work.
The conditions of data set [2]: cited from earlier work.

As for `Clc1cccc(Cl)c1N=C1NCCN1` [clonidine], the side effects entry in data set [1] is “dry mouth and sedation”. Turning to `CC(COc1ccccc1)N(CCCl)Cc1ccccc1` (stereo not shown) [phenoxybenzamine], in data set [2], the “relieving the symptoms of / treating BPH” value is reported as “useful in relieving the symptoms of BPH”. For the same molecule, in data set [1], the side effects entry was “significant side effects such as dizziness and asthenia”. Take `COc1cc2nc(N3CCN(C(=O)c4ccco4)CC3)nc(N)c2cc1OC` [prazosin]: in data set [2], the “relieving the symptoms of / treating BPH” value was “useful for treating BPH”. Also, the side effects entry in data set [1] is “untoward side effects”. `COc1cc2nc(N3CCN(C(=O)C4CCCO4)CC3)nc(N)c2cc1OC` (stereo not shown) [terazosin]: the “relieving the symptoms of / treating BPH” value in data set [2] is reported as “useful for treating BPH”. Besides, the side effects result in data set [1] is “untoward side effects”.
